In ChEMBL document CHEMBL5380773, “Novel Feleucin-K3-Derived Peptides Modified with Sulfono-γ-AA Building Blocks Targeting Pseudomonas aeruginosa and Methicillin-Resistant Staphylococcus aureus Infections” (J Med Chem, 2023):
Converted amounts (≈) assume the structure as drawn. The source made the active and inactive calls. The calls are words filed in the database; no cut-off is given here. Numbered stars: 1 amine (or outer) side, 2 acyl side, 3 side chain; on linkers, the order of the positions; unused ones are H or OH. Square brackets hold non-standard residues; d marks the D form. Peptide text beside a SMILES is read from it. * marks the point of attachment. X2 = CC(C)C[C@H](N)CN(CC(=O)[*:2])[*:1]; X1 = O=S(=O)(c1ccc(I)cc1)*

Columns and labels:
[1] = test system: Cell membrane; assay: Induction of membrane disruption in Pseudomonas aeruginosa ATCC 27853 assessed as separation of cytoplasmic membrane at 2 to 4 times MIC incubated for 24 hrs by TEM analysis; format: subcellular
[2] = test system: Pseudomonas aeruginosa; assay: Antimicrobial activity against Pseudomonas aeruginosa ATCC 27853 infected in C57BL/6J mouse assessed as reduction in IL-6 at 2.5 mg/kg, ip measured after 72 hrs […]; format: functional, organism-based
[3] = test system: Staphylococcus aureus; assay: Antimicrobial activity against methicillin resistant Staphylococcus aureus ATCC 33591 infected in skin wound mouse model assessed as reduction in number of inflammatory cells at 1 to 4 mg/kg measured on day 3 and 7 by H and E staining based assay; format: functional, organism-based; conditions: dose 1-4 mg/kg, time 3-7 day
[4] = test system: Pseudomonas aeruginosa; assay: Bactericidal activity against Pseudomonas aeruginosa ATCC 27853 at 4 times MIC after 5 mins by time kill assay; format: functional, organism-based
[5] = test system: DNA; assay: Binding affinity to Staphylococcus epidermidis DNA at 8 times MIC incubated for 30 mins; format: nucleic-acid assay
[6] = test system: Staphylococcus aureus; assay: Antibiofilm activity against methicillin resistant Staphylococcus aureus ATCC 33591 assessed as reduction in biofilm structures at MBIC90 by scanning electron microscopic analysis; format: functional, organism-based
[7] = test system: Staphylococcus aureus; assay: Antimicrobial activity against methicillin resistant Staphylococcus aureus ATCC 33591 incubated for 18 hrs by microdilution method; format: functional
[8] = test system: Staphylococcus aureus; assay: Bactericidal activity against Staphylococcus aureus ATCC 25923 at 4 times MIC after 1 hr by time kill assay; format: functional, organism-based
[9] = test system: Staphylococcus aureus; assay: Bactericidal activity against methicillin resistant Staphylococcus aureus ATCC 33591 at 4 times MIC after 2 to 4 hrs; format: functional, organism-based; conditions: time 2-4 hrs
[10] = test system: Pseudomonas aeruginosa; assay: Antibiofilm activity against Pseudomonas aeruginosa ATCC 27853 at MBIC50; format: functional, organism-based
[11] = test system: Pseudomonas aeruginosa; assay: Antibiofilm activity against Pseudomonas aeruginosa ATCC 27853 assessed as reduction in biofilm thickness at 1 times MBIC50 incubated for 24 hrs by confocal laser scanning microscopy analysis (reference value: 90 micrometer); format: functional
[12] = test system: Cell membrane; assay: Induction of cytoplasmic membrane depolarization in Pseudomonas aeruginosa ATCC 27853 by DiSC35 dye based fluorescence method
[13] = test system: Pseudomonas aeruginosa; assay: Induction of DNA leakage in Pseudomonas aeruginosa ATCC 27853 after 1 to 6 hrs; format: functional, organism-based; conditions: time 1-6 hrs
[14] = test system: Staphylococcus aureus; assay: Bactericidal activity against methicillin resistant Staphylococcus aureus ATCC 33591 at 4 times MIC after 1 to 2.5 hrs by time kill assay; format: functional, organism-based; conditions: time 1-2.5 hrs
[15] = test system: DNA; assay: Binding affinity to Staphylococcus aureus DNA at 8 times MIC incubated for 30 mins; format: nucleic-acid assay
[16] = test system: Staphylococcus aureus; assay: Antimicrobial activity against methicillin resistant Staphylococcus aureus ATCC 33591 infected in skin wound mouse model assessed as reduction in ulcer at 1 to 4 mg/kg measured on day 3 and 7 by H and E staining based assay; format: functional, organism-based; conditions: dose 1-4 mg/kg, time 3-7 day
[17] = test system: Cell membrane; assay: Induction of membrane disruption in methicillin resistant Staphylococcus aureus ATCC 33591 assessed as membrane blebbing at low concentration incubated for 24 hrs by SEM analysis; format: subcellular
[18] = test system: Staphylococcus aureus; assay: Antimicrobial activity against methicillin resistant Staphylococcus aureus ATCC 33591 infected in BALB/c mouse assessed as reduction in tissue damage at 0.25 to 1 mg/kg infected with bacteria for 2 hrs prior to compound addition on 1, 24 and 48 hrs and measured after 72 hrs by H and E staining based assay; format: functional, organism-based; conditions: dose 0.25-1 mg/kg
[19] = test system: Pseudomonas aeruginosa; assay: Bactericidal activity against Pseudomonas aeruginosa ATCC 27853 at 4 times MIC after 30 mins by time kill assay; format: functional, organism-based
[20] = test system: Staphylococcus aureus; assay: Antimicrobial activity against methicillin resistant Staphylococcus aureus ATCC 33591 infected in BALB/c mouse assessed as reduction in inflammatory cell infiltration at 0.25 to 1 mg/kg infected with bacteria for 2 hrs prior to compound addition on 1, 24 and 48 hrs and measured after 72 hrs by H and E staining based assay; format: functional, organism-based; conditions: dose 0.25-1 mg/kg
[21] = test system: Pseudomonas aeruginosa; assay: Antimicrobial activity against Pseudomonas aeruginosa ATCC 27853 infected in C57BL/6J mouse assessed as reduction in lung bacterial load at 10 mg/kg, ip measured after 72 hrs […] (reference value: 6.4 10^3CFU/mg); format: functional
[22] = test system: Pseudomonas aeruginosa; assay: Induction of protein leakage in Pseudomonas aeruginosa ATCC 27853 after 1 to 6 hrs; format: functional, organism-based; conditions: time 1-6 hrs
[23] = test system: Cell membrane; assay: Induction of membrane disruption in methicillin resistant Staphylococcus aureus ATCC 33591 assessed as separation […] at 2 to 4 times MIC incubated for 2 to 4 hrs by TEM analysis; format: subcellular; conditions: time 2-4 hrs
[24] = test system: Staphylococcus aureus; assay: Antibiofilm activity against methicillin resistant staphylococcus aureus ATCC 33591 at 4 to 8 ug/ml incubated for 24 hrs by crystal violet staining based microplate reader analysis; format: functional, organism-based; conditions: dose 4-8 µg/ml
[25] = test system: Staphylococcus aureus; assay: Antibiofilm activity against Staphylococcus aureus ATCC 25923 at 4 to 8 ug/ml incubated for 24 hrs by crystal violet staining based microplate reader analysis; format: functional, organism-based; conditions: dose 4-8 µg/ml
[26] = test system: Pseudomonas aeruginosa; assay: Bactericidal activity against Pseudomonas aeruginosa ATCC 27853 at 4 times MIC after 1 hr; format: functional, organism-based
[27] = test system: Cell membrane; assay: Induction of membrane disruption in methicillin resistant Staphylococcus aureus ATCC 33591 assessed as cytoplasmic leakage at 2 to 4 times MIC incubated for 2 to 4 hrs by TEM analysis; format: subcellular; conditions: time 2-4 hrs
[28] = test system: Staphylococcus aureus; assay: Bactericidal activity against Staphylococcus aureus ATCC 25923 at 4 times MIC after 2 to 4 hrs; format: functional, organism-based; conditions: time 2-4 hrs
[29] = test system: Erythrocyte; assay: Hemolytic activity against mouse red blood cells incubated for 1 hr; format: toxicity, cell-based
[30] = test system: Cell membrane; assay: Induction of membrane disruption in methicillin resistant Staphylococcus aureus ATCC 33591 assessed as irregular atrophy at low concentration incubated for 24 hrs by SEM analysis; format: subcellular
[31] = test system: Cell membrane; assay: Induction of membrane disruption in methicillin resistant Staphylococcus aureus ATCC 33591 assessed as separation of cytoplasmic membrane at 2 to 4 times MIC incubated for 2 to 4 hrs by TEM analysis; format: subcellular; conditions: time 2-4 hrs
[32] = test system: Staphylococcus aureus; assay: Induction of resistant development in methicillin resistant Staphylococcus aureus ATCC 33591 assessed as fold increase by serial passage assay; format: functional
[33] = test system: Cell membrane; assay: Induction of outer membrane disruption in Pseudomonas aeruginosa in presence of CaCl2 by NPN uptake assay; format: subcellular
[34] = test system: Pseudomonas aeruginosa; assay: Antimicrobial activity against Pseudomonas aeruginosa ATCC 27853 infected in C57BL/6J mouse assessed as reduction in TNF-alpha at 2.5 mg/kg, ip measured after 72 hrs […]; format: functional, organism-based
[35] = test system: Pseudomonas aeruginosa; assay: Antibiofilm activity against Pseudomonas aeruginosa ATCC 27853 at 4 to 8 ug/ml incubated for 24 hrs by crystal violet staining based microplate reader analysis; format: functional, organism-based; conditions: dose 4-8 µg/ml
[36] = test system: Staphylococcus epidermidis; assay: Antibiofilm activity against Staphylococcus epidermidis ATCC 12228 assessed as reduction in biofilm mass; format: functional, organism-based
[37] = test system: Staphylococcus epidermidis; assay: Bactericidal activity against Staphylococcus epidermidis ATCC 12228 at 4 times MIC after 0.5 hrs; format: functional, organism-based
[38] = test system: Cell membrane; assay: Induction of membrane disruption in methicillin resistant Staphylococcus aureus ATCC 33591 assessed as membrane collapse at 2 to 4 times MIC incubated for 2 to 4 hrs by TEM analysis; format: subcellular; conditions: time 2-4 hrs
[39] = test system: Staphylococcus aureus; assay: Antibiofilm activity against methicillin resistant Staphylococcus aureus ATCC 33591 assessed as reduction in biofilm mass; format: functional, organism-based
[40] = test system: Pseudomonas aeruginosa; assay: Antimicrobial activity against Pseudomonas aeruginosa in presence of LPS/LTA; format: functional

`CC(C)C[C@H](N)CN(CC(=O)N[C@@H](CCCCN)C(=O)N[C@@H](CC(C)C)C(=O)N[C@@H](CC(C)C)C(=O)N[C@@H](CCCCN)C(=O)N[C@@H](CCCCN)C(=O)N[C@@H](CC(C)C)C(=O)N[C@@H](CC(C)C)C(N)=O)S(=O)(=O)c1ccc(I)cc1` (X1-[X2]KLLKKLL-NH2) was tested, and the Activity [1] was “Active”, the Activity [2] was “Active” and the Activity [3] was “Active”. The Activity [4] was “Active”, the Activity [5] was “Active” and the Activity [6] was “Active”. The MIC [7] was 2.8 µg/mL (≈ 2.19 µM), the Activity [8] was “Active” and the Activity [9] was “Active”. For the same compound, the Activity [10] was “Active”, the Activity [11] was 40 um and the Activity [12] was “Active”. The Activity [13] was “Dose-Dependent Effect”, the Activity [14] was “Active” and the Activity [15] was “Active”. The Activity [16] was “Active”, the Activity [17] was “Active” and the Activity [18] was “Active”. The Activity [19] was “Active”, the Activity [20] was “Active” and the Activity [21] was 1 10^3CFU/mg. The Activity [22] was “Dose-Dependent Effect”, the Activity [23] was “Active” and the Activity [24] was “Active”. The Activity [25] was “Active”, the Activity [26] was “Active” and the Activity [27] was “Active”. For the same compound, the Activity [28] was “Active”, the MHC [29] was 256 µg/mL and the Activity [30] was “Active”. For the same compound, the Activity [31] was “Active”, the “fold change (FC)” value [32] was 2 and the Activity [33] was “Active”. For the same compound, the Activity [34] was “Active”, the Activity [35] was “Active” and the Activity [36] was “Active”. The Activity [37] was “Active”, the Activity [38] was “Active” and the Activity [39] was “Active”. For the same compound, the MIC [40] was at least 64 µg/mL.
